Results reported in patent US6455506B1, “Lyxofuranosyl benzimidazoles as antiviral agents” (SmithKline Beecham Corporation, priority 1997, dated 2002).
“And” between values parts separate entries of the source, which are not always exact repeats. Identical values can stand only once. Like-named read-outs stand apart in the source and are kept apart here.

Assays:
[1] = test system: HCMV; experiment: HCMV plaque reduction assay (Towne strain) in HFF cells; format: cell-based, Human cytomegalovirus
Method: (§1) Stock HCMV was prepared by infecting HFF cells at a multiplicity of infection (m.o.i.) of <0.01 plaque-forming units (p.f.u.) per cell as detailed previously (see Turk, S. R.; Shipman, C., Jr.; Nassiri, M. R.; Genzingler, G.; Krawczyk, S. H.; Townsend, L. B.; Drach, J. C. Pyrrolo[2,3-d]pyrimidine Nucleosides as Inhibitors of Human Cytomegalovirus, Antimicrob. Agents Chemother. 1987, 31, 544-550). High titer HSV-1 stocks were prepared by infecting KB cells (ATCC) at an m.o.i. of <0.1 also as detailed previously (see Turk, S. R.; Shipman, C., Jr.; Nassiri, M. R.; Genzingler, G.; Krawczyk, S. H.; Townsend, L. B.; Drach, J. C. Pyrrolo[2,3-d]pyrimidine Nucleosides as Inhibitors of Human Cytomegalovirus, Antimicrob. Agents Chemother. 1987, 31, 544-550). Virus titers were determined using monolayer cultures of HFF cells for HCMV and monolayer cultures of BSC-1 cells for HSV-1 as described earlier (see Prichard, M. N.; Turk, S. R.; Coleman, L. A.; Engelhardt, S. L.; Shipman, C., Jr.; Drach, J. C. A Microtiter Virus Yield Reduction Assay for the Evaluation of Antiviral Compounds Against Human Cytomegalovirus and Herpes Simplex Virus. J. Virol. Methods 1990, 28, 101-106). Briefly, HFF or BSC-1 cells were planted as described above in 96-well cluster dishes and incubated overnight at 37° C. The next day cultures were inoculated with HCMV or HSV-1 and serially diluted 1:3 across the remaining eleven columns of the 96-well plate. After virus adsorption the inoculum was replaced with fresh medium and cultures were incubated for seven days for HCMV, two or three days for HSV-1. Plaques were enumerated under 20-fold magnification in wells having the dilution which gave 5 to 20 plaques per well. Virus titers were calculated according to the following formula: Titer (p.f.u./mL)=number of plaques×5×3^n; where n represents the nth dilution of the virus used to infect the well in which plaques were enumerated.
(§2) HFF cells in 24-well cluster dishes were infected with approximately 100 p.f.u. of HCMV per cm^2 cell sheet using the procedures detailed above. Following virus adsorption, compounds dissolved in growth medium were added to duplicate wells in four to eight selected concentrations. After incubation at 37° C. for 7 to 10 days, cell sheets were fixed, stained with crystal violet and microscopic plaques enumerated as described above.
(§3) Dose-response relationships were constructed by linearly regressing the percent inhibition of parameters derived in the preceding sections against log drug concentrations. Fifty-percent inhibitory concentrations (IC50's) or IC90's were calculated from the regression lines. Samples containing positive controls (acyclovir for HSV-1, ganciclovir for HCMV, and 2-acetylpyridine thiosemicarbazone for cytotoxicity) were used in all assays.

[2] = Inhibition of KB cell growth (crystal violet); format: cell-based; conditions: human
Method: (§4) Two different assays were used for routine cytotoxicity testing. (i) Cytotoxicity produced in stationary HFF cells was determined by microscopic inspection of cells not affected by the virus used in plaque assays (see Turk, S. R.; Shipman, C., Jr.; Nassiri, M. R.; Genzingler, G.; Krawczyk, S. H.; Townsend, L. B.; Drach, J. C. Pyrrolo[2,3-]pyrimidine Nucleosides as Inhibitors of Human Cytomegalovirus, Antimicrob. Agents Chemother. 1987, 31, 544-550). (ii) The effect of compounds during two population doublings of KB cells was determined by crystal violet staining and spectrophotometric quantitation of dye eluted from stained cells as described earlier (see Prichard, M. N.; Prichard, L. E., Baguley, W. A.; Nassiri, M. R.; Shipman, C., Jr. Three-Dimensional Analysis of the Synergistic Cytotoxicity of Ganciclovir and Zidovudine. Antiviral Res. 1991, 35, 1060-1065). Briefly, 96-well cluster dishes were planted with KB cells at 3000-5000 cells per well. After overnight incubation at 37° C., test compound was added in quadruplicate at six to eight concentrations. Plates were incubated at 37° C. for 48 hours in a CO2 incubator, rinsed, fixed with 95% ethanol, and stained with 0.1% crystal violet. Acidified ethanol was added and plates read at 570 nm in a spectrophotometer designed to read 96-well ELISA assay plates.
as §3

[3] = test system: HCMV; experiment: HCMV yield reduction assay (Towne strain) in HFF cells; format: cell-based, Human cytomegalovirus
Method: as §1
HFF cells were planted as described above in 96-well cluster dishes, incubated overnight, medium removed and the cultures were inoculated with HCMV at a m.o.i. of 0.5 to 1 p.f.u. per cell as reported elsewhere (see Prichard, M. N.; Turk, S. R.; Coleman, L. A.; Engelhardt, S. L.; Shipman, C., Jr.; Drach, J. C. A Microtiter Virus Yield Reduction Assay for the Evaluation of Antiviral Compounds Against Human Cytomegalovirus and Herpes Simplex Virus. J. Virol. Methods 1990, 28, 101-106). After virus adsorption, inoculum was replaced with 0.2 mL of fresh medium containing test compounds. The first row of 12 wells was left undisturbed and served as virus controls. Each well in the second row received an additional 0.1 mL of medium with test compound at three times the desired final concentration. The contents of the 12 wells were mixed by repeated pipetting and then serially diluted 1:3 along the remaining wells. In this manner, six compounds could be tested in duplicate on a single plate with concentrations from […]. Plates were incubated at 37° C. for seven days, subjected to one cycle of freezing and thawing; aliquots from each of the eight wells of a given column were transferred to the first column of a fresh 96-well monolayer culture of HFF cells. Contents were mixed and serially diluted 1:3 across the remaining eleven columns of the secondary plate. Each column of the original primary plate was diluted across a separate plate in this manner. Cultures were incubated, plaques were enumerated, and titers calculated as described above.
as §3

[4] = test system: HSV-1; experiment: HSV-1 ELISA in BSC-1 cells; format: cell-based, herpes simplex virus 1; conditions: Human alphaherpesvirus 1, quadruplicate wells, read-out: HSV-1 ELISA 50% Inhibitory Concentration (IC50)
Method: An ELISA was employed (see Prichard, M. N.; Shipman, C., Jr. A Three Dimensional Model to Analyze Drug-Drug Interactions. Antiviral Res. 1990, 14, 181-206) to detect HSV-1. Ninety-six-well cluster dishes were planted with 10,000 BSC-1 cells per well in 200 μL per well of MEM(E) plus 10% calf serum. After overnight incubation at 37° C., selected drug concentrations in quadruplicate and HSV-1 at a concentration of 100 p.f.u./well were added. Following a 3-day incubation at 37° C., medium was removed, plates were blocked, rinsed, and horse radish peroxidase conjugated rabbit anti-HSV-1 antibody was added. Following removal of the antibody containing solution, plates were rinsed, and then developed by adding 150 μL per well of a solution of tetramethylbenzidine as substrate. The reaction was stopped with H2SO4 and absorbance was read at 450 and 570 nm. Drug effects were calculated as a percentage of the reduction in absorbance in the presence of each drug concentration compared to absorbance obtained with virus in the absence of drug.
as §3

[5] = test system: HCMV Strain AD169; experiment: HCMV plaque reduction assay, strain AD169; format: cell-based, Human cytomegalovirus; conditions: Human betaherpesvirus 5, Table 3, read-out: HCMV Strain AD169 plaque 50% Inhibitory Concentration (IC50)
Method: as §2, §3

[6] = Visual cytotoxicity in stationary HFF cells; format: cell-based; conditions: human
Method: as §4, §3

[7] = Human betaherpesvirus 5, HFF, Table 3, same data as Table 2, read-out: HCMV Strain Towne plaque 50% Inhibitory Concentration (IC50)
[8] = Human betaherpesvirus 5, Table 2, HFF cells, duplicate, read-out: HCMV plaque 50% Inhibitory Concentration (IC50)
[9] = Human betaherpesvirus 5, HFF, Table 3, same data as Table 2, read-out: HCMV Strain Towne yield 90% Inhibitory Concentration (IC90)
[10] = Human betaherpesvirus 5, Table 2, HFF cells, duplicate, read-out: HCMV yield 90% Inhibitory Concentration (IC90)
[11] = KB cells, KB cell growth, 48 hours, quadruplicate, read-out: Cytotoxicity growth (IC50)
[12] = HFF cells, scored at time of HCMV plaque enumeration, read-out: Cytotoxicity visual (IC50)

Row | SMILES | IC50 [1, 7] | IC50 [1, 8] | IC90 [3, 9] | IC90 [3, 10] | IC50 [4] | IC50 [5] | melting point | IC50 at 48 h [2] | IC50 [6] | IC50 at 48 h [2, 11] | IC50 [6, 12]
1 | CNc1nc2cc(Cl)c(Cl)cc2n1[C@@H]1O[C@@H](CO)[C@@H](O)[C@H]1O [Compound 6a, 5,6-Dichloro-1-(α-L-lyxofuranosyl)-2-(methylamino)benzimidazole] | – | > 100 µM | – | – | > 100 µM | – | 126 to 128 °C and 131 to 132 °C | – | – | > 100 µM | > 100 µM
2 | CNc1nc2cc(Cl)c(Cl)cc2n1[C@H]1O[C@H](CO)[C@H](O)[C@@H]1O [Compound 6b, 5,6-Dichloro-1-(α-D-lyxofuranosyl)-2-(methylamino)benzimidazole] | – | > 100 µM | – | > 100 µM | > 100 µM | – | – | – | – | > 100 µM | > 100 µM
3 | CC(C)Nc1nc2cc(Cl)c(Cl)cc2n1[C@@H]1O[C@@H](CO)[C@@H](O)[C@H]1O [Compound 7a, 5,6-Dichloro-2-isopropylamino-1-(α-L-lyxofuranosyl)benzimidazole] | > 100 µM | > 100 µM | 19 µM | 19 µM | > 100 µM | 11 µM | – | – | – | > 100 µM | > 100 µM
4 | CC(C)Nc1nc2cc(Cl)c(Cl)cc2n1[C@H]1O[C@H](CO)[C@H](O)[C@@H]1O [Compound 7b, 5,6-Dichloro-2-isopropylamino-1-(α-D-lyxofuranosyl)benzimidazole] | 60 µM | 60 µM | 17 µM | 17 µM | > 100 µM | 32 µM | – | – | – | > 100 µM | > 100 µM
5 | OC[C@H]1O[C@H](n2c(=S)[nH]c3cc(Cl)c(Cl)cc32)[C@@H](O)[C@H]1O [Compound 9b, 5,6-Dichloro-1-(α-D-lyxofuranosyl)benzimidazol-2-thione] | – | > 100 µM | – | > 100 µM | > 100 µM | – | – | – | – | > 100 µM | > 100 µM
6 | CSc1nc2cc(Cl)c(Cl)cc2n1[C@@H]1O[C@@H](CO)[C@@H](O)[C@H]1O [Compound 12a, 5,6-Dichloro-1-(α-L-lyxofuranosyl)-2-(methylthio)benzimidazole] | – | > 100 µM | – | – | > 100 µM | – | – | – | – | > 100 µM | > 100 µM
7 | CSc1nc2cc(Cl)c(Cl)cc2n1[C@H]1O[C@H](CO)[C@H](O)[C@@H]1O [Compound 12b, 5,6-Dichloro-1(α-D-lyxofuranosyl)-2-(methylthio)benzimidazole] | – | > 100 µM | – | > 100 µM | > 100 µM | – | – | – | – | > 100 µM | > 100 µM

More lines, main results first:

Row | IC50 [1, 7] | IC50 [1, 8] | IC90 [3, 9] | IC90 [3, 10] | IC50 [4] | IC50 [5] | melting point | SMILES | IC50 at 48 h [2] | IC50 [6] | IC50 at 48 h [2, 11] | IC50 [6, 12]
8 | 18 µM | 18 µM | 3.4 µM | 3.4 µM | > 100 µM | 2.6 µM | – | OC[C@@H]1O[C@@H](n2c(Cl)nc3cc(Cl)c(Cl)cc32)[C@H](O)[C@@H]1O [Compound 4a, 1-(α-L-Lyxofuranosyl)-2,5,6-trichlorobenzimidazole] | > 100 µM | 190 µM | – | –
9 | 18 µM | 18 µM | > 100 µM | > 100 µM | 90 µM | 9 µM | – | OC[C@H]1O[C@H](n2c(Cl)nc3cc(Cl)c(Cl)cc32)[C@@H](O)[C@H]1O [Compound 4b, 1-(α-D-Lyxofuranosyl)-2,5,6-trichlorobenzimidazole] | > 100 µM | > 100 µM | – | –
10 | 6 µM | 6 µM | 65 µM | 65 µM | 50 µM | 4.2 µM | – | OC[C@H]1O[C@H](n2c(Br)nc3cc(Cl)c(Cl)cc32)[C@@H](O)[C@H]1O [Compound 5b, 2-Bromo-5,6-dichloro-1-(α-D-lyxofuranosyl)benzimidazole] | – | – | > 100 µM | > 100 µM
11 | – | – | – | – | – | – | 183 to 185 °C and 184 to 186 °C | OC[C@@H]1O[C@@H](n2c(NC3CC3)nc3cc(Cl)c(Cl)cc32)[C@H](O)[C@@H]1O [Compound 8a, 2-Cyclopropylamino-5,6-dichloro-1-(α-L-lyxofuranosyl)benzimidazole] | – | – | – | –
12 | – | > 100 µM | – | > 100 µM | > 100 µM | – | 234 to 236 °C | OC[C@@H]1O[C@@H](n2c(=S)[nH]c3cc(Cl)c(Cl)cc32)[C@H](O)[C@@H]1O [Compound 9a, 5,6-Dichloro-1-(α-L-lyxofuranosyl)benzimidazol-2-thione] | – | – | > 100 µM | > 100 µM
13 | – | 39 ± 26 µM | – | – | – | – | – | O=C(O)P(=O)(O)O [foscarnet, reference compound] | – | – | – | > 100 µM
